Experimental findings from ChEMBL document CHEMBL5465560, “Selectivity Literature for EUbOPEN Chemogenomic Library” (2024) are described below.

Experiment [1] addresses Ribosomal protein S6 kinase alpha-1 (Homo sapiens, UniProt Q15418). As to the kind of experiment: Selectivity interaction (KinomeScan (DiscoverX)) EUB0000595a RPS6KA1. The following applies: at 10 µM.
Experiment [2] deals with T1, NUAK family SNF1-like kinase 2 (Homo sapiens) (UniProt Q9H093).
T1 sequence (whole entry): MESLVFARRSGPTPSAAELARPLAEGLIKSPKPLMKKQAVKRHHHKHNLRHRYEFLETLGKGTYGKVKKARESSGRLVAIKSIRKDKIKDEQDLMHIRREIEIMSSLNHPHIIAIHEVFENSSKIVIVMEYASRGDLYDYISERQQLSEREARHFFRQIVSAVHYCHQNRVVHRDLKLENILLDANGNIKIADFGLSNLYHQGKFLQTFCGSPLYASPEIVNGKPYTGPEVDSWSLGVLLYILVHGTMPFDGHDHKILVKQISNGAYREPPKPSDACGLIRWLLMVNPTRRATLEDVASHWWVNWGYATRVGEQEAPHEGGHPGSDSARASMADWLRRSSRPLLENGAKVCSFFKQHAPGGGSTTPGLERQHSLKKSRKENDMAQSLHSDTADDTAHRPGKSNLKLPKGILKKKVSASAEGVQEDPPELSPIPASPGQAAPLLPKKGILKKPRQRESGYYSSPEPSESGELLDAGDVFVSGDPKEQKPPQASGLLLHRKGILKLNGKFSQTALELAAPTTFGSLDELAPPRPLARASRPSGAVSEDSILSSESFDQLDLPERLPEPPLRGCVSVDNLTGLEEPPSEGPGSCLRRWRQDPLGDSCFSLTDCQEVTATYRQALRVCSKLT
As to the kind of experiment: Selectivity interaction (KinomeScan (DiscoverX)) EUB0000607a NUAK2. The following applies: at 10 µM.

Experiment [3] concerns the target Tyrosine-protein kinase Yes (Homo sapiens) (UniProt P07947). As to the kind of experiment: Selectivity interaction (KinomeScan (DiscoverX)) EUB0000607a YES1. The following applies: at 10 µM.
In experiment [4] the target is Casein kinase II subunit alpha (Homo sapiens, UniProt P68400). As to the kind of experiment: Selectivity interaction (KinomeScan (DiscoverX)) EUB0000045b CSNK2A1.
The target in experiment [5] is Dual specificity protein kinase CLK4 (Homo sapiens, UniProt Q9HAZ1). As to the kind of experiment: Selectivity interaction (KinomeScan (DiscoverX)) EUB0001049a CLK4. The following applies: at 1 µM.
Experiment [6] addresses T2, Myotonin-protein kinase (Homo sapiens) (UniProt Q09013).
T2 sequence (whole entry): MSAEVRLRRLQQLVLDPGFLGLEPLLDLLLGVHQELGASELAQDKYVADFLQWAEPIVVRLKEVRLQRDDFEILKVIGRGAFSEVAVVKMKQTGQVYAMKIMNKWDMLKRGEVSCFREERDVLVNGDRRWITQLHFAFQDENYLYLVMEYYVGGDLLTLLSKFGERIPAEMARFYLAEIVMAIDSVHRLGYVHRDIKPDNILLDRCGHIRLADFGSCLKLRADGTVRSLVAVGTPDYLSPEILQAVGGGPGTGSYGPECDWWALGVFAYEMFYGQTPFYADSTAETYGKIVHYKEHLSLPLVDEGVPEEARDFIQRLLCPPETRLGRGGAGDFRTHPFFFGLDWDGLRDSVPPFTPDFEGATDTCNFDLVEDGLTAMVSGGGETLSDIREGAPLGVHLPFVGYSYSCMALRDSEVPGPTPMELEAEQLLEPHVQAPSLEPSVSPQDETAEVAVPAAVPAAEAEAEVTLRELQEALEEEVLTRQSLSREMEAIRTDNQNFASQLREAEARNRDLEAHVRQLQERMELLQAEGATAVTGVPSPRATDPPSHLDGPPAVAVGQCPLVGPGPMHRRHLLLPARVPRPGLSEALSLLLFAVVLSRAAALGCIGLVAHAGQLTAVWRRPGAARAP
As to the kind of experiment: Selectivity interaction (KinomeScan (DiscoverX)) EUB0000655a DMPK. The following applies: at 10 µM.

In experiment [7] the target is Serine/threonine-protein kinase PLK3 (Homo sapiens, UniProt Q9H4B4). As to the kind of experiment: Selectivity interaction (KinomeScan (DiscoverX)) EUB0000655a PLK3. The following applies: at 10 µM.
For experiment [8], the target named is Mitogen-activated protein kinase 3 (Homo sapiens, UniProt P27361). As to the kind of experiment: Selectivity interaction (KinomeScan (DiscoverX)) EUB0001079a MAPK3. The following applies: at 1 µM.
Experiment [9] concerns the target T3, Ephrin type-B receptor 6 (Homo sapiens) (UniProt O15197).
T3 sequence (whole entry): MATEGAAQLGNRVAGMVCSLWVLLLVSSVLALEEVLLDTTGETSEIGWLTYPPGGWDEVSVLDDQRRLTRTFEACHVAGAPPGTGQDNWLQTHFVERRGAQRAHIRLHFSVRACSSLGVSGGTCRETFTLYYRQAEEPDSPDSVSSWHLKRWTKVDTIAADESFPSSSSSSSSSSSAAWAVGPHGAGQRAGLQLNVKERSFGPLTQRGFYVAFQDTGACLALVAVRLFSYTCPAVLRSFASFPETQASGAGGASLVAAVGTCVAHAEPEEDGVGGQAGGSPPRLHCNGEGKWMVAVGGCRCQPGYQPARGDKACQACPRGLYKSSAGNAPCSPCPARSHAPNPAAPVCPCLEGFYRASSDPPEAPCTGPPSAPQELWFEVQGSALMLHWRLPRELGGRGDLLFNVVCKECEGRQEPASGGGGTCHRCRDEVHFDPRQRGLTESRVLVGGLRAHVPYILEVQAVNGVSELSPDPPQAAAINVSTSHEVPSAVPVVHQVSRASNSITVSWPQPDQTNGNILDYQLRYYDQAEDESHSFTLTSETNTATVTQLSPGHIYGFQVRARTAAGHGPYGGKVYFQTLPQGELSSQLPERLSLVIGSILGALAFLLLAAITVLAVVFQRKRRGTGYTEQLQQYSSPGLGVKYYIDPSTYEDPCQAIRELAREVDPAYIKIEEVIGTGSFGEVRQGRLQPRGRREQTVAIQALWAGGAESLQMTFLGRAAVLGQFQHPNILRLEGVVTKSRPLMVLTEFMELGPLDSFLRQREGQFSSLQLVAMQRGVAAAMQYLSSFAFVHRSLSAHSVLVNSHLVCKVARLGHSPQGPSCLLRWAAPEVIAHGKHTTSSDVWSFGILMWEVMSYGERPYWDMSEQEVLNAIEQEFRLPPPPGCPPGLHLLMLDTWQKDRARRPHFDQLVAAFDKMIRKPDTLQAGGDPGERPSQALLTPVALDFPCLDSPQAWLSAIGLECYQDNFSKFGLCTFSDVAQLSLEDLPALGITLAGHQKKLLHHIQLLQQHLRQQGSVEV
As to the kind of experiment: Selectivity interaction (KinomeScan (DiscoverX)) EUB0000229b EPHB6. The following applies: at 10 µM.

Casein kinase II subunit alpha, sequence (P68400 whole entry, looked up): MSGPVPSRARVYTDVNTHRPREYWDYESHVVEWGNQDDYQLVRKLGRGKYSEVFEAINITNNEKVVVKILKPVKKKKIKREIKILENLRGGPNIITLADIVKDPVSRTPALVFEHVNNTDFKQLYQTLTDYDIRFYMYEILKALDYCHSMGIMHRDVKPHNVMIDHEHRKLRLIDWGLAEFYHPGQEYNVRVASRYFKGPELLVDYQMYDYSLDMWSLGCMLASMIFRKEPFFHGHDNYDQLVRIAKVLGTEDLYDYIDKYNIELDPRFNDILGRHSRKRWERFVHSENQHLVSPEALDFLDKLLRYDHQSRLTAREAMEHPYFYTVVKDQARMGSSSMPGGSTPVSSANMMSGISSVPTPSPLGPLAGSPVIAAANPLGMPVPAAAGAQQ
Ribosomal protein S6 kinase alpha-1, sequence (Q15418 whole entry): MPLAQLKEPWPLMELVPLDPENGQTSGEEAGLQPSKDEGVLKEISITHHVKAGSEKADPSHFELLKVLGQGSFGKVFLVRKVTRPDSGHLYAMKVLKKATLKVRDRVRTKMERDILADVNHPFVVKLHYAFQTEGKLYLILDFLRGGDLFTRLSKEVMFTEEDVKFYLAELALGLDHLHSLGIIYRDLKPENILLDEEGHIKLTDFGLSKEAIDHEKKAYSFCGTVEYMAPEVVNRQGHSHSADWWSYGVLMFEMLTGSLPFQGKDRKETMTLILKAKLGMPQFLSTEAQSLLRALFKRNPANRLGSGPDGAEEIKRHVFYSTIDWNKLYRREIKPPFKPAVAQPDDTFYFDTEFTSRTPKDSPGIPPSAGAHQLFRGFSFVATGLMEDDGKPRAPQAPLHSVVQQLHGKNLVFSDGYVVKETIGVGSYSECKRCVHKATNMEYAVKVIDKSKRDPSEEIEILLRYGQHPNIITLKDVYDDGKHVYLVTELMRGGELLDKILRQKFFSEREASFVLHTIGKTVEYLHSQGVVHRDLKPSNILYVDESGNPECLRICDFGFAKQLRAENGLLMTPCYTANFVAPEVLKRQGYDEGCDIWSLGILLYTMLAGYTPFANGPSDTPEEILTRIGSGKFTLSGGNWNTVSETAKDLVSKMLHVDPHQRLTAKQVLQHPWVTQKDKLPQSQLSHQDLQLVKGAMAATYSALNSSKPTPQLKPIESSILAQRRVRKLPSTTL
Dual specificity protein kinase CLK4, sequence (Q9HAZ1 whole entry, looked up): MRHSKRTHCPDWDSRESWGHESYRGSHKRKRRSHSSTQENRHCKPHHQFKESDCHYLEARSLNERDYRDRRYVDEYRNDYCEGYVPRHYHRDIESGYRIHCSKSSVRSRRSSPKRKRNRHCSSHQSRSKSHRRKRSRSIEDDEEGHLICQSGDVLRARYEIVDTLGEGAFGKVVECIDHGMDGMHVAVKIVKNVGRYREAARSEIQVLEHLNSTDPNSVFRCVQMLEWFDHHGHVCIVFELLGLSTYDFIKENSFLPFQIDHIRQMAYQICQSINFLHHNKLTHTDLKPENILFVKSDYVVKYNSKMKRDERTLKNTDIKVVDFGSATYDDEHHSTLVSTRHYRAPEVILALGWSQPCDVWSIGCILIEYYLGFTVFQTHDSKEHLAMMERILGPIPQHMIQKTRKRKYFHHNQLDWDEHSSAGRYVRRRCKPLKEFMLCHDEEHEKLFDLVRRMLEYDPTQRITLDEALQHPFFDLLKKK
Mitogen-activated protein kinase 3, sequence (P27361 whole entry): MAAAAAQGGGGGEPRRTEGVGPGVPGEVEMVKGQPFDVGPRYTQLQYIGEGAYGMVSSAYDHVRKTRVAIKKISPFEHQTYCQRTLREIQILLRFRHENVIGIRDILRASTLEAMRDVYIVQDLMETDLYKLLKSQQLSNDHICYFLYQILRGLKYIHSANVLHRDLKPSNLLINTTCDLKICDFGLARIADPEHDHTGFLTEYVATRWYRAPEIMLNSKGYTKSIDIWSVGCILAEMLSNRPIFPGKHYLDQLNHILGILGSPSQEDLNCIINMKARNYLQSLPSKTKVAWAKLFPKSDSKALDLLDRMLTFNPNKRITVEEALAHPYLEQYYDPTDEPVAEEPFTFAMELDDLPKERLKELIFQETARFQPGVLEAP
Tyrosine-protein kinase Yes (Homo sapiens), sequence (P07947 2-543 limits assumed): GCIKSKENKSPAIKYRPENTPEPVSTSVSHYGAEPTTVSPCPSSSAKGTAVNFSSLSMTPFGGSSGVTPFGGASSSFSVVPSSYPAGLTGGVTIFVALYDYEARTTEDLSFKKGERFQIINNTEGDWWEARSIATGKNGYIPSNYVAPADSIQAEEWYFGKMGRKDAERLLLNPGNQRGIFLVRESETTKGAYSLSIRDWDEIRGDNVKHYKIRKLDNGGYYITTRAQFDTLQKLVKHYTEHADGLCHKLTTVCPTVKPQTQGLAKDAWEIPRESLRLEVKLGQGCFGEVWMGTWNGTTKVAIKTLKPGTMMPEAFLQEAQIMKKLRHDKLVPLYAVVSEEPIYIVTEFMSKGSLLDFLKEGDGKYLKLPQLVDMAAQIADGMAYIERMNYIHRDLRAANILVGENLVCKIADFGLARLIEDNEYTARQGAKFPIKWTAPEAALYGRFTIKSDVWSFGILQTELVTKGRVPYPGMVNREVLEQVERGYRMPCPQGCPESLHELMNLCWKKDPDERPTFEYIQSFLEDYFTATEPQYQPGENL
Serine/threonine-protein kinase PLK3, sequence (Q9H4B4 whole entry, looked up): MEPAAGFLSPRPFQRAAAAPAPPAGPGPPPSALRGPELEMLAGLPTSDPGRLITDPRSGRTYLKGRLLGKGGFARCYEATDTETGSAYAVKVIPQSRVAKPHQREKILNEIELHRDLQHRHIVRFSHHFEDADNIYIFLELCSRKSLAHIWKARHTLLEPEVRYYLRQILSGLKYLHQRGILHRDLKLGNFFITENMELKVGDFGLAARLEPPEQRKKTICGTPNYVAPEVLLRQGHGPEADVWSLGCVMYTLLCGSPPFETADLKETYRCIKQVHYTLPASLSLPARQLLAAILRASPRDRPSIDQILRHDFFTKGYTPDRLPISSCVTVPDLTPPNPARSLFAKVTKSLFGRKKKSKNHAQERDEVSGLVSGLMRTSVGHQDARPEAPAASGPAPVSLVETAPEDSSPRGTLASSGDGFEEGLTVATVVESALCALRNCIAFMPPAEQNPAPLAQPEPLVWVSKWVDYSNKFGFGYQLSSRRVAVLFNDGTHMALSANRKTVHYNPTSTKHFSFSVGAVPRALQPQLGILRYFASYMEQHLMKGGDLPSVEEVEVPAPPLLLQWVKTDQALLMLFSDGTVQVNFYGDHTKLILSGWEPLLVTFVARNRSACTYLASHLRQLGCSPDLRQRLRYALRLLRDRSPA

`COCC(=O)NC/C=C/c1ccc2ncnc(Nc3ccc(Oc4ccc(C)nc4)c(C)c3)c2c1` [CP-724714] returned a % of control in [1] of 100%.

Take `CNC(=O)Nc1ccc(-c2nc(N3CC4CCC(C3)O4)c3cnn(C4CCC5(CC4)OCCO5)c3n2)cc1`: the % of control in [2] came out at 100%; in [3], 97%.

As for `C=CC(=O)Nc1cc(-n2c(=O)ccc3cnc4ccc(-c5ccc(NS(C)(=O)=O)cc5)cc4c32)ccc1C`, the % of control turned out to be 84% in experiment [4] (at 1 µM) and 51% in experiment [4] (at 10 µM).

`COc1cc(Nc2nc(C)cc(-c3cnn4nc(OC)ccc34)n2)cc(C(F)(F)F)c1` had a % of control in [5] of 98%.

Turning to `CN(C)CCOc1ccc(-c2nc(-c3ccncc3)c(-c3ccc4c(c3)CC/C4=N\O)[nH]2)cc1`, the values for the % of control in experiment [6] and in [7] were 100% and 94%, respectively.

As for `Nc1cnc(N2CCc3cc(S(=O)(=O)Nc4c(F)cc(Cl)cc4F)cc(N4CCCC4=O)c32)nc1` [TP-020n], the % of control in experiment [8] was 91%.

With `COc1cc(N(C)c2ccnc3ccc(C(F)(F)F)cc23)cc(OC)c1OC`, in experiment [9], the % binding came out at 81%.
